{"source": "patent US4923697A", "about": "“Antioxidant compositions and methods” (Bar-Ilan University, priority 1986, dated 1990)", "data": [{"system": "skin of adult mice", "experiment": "TBA test of peroxide level in skin of adult shaved mice", "assay_type": "in vivo, mouse", "details": "0.1% in Oil of Olay", "text": "Samples of creams and appropriate controls were applied to mice or rat skin for a fixed period. The application was done once a day. Experiments were terminated by killing the animal, peeling the skin and freezing it in liquid nitrogen. Samples of the frozen skin were homogenized in 0.2.M phosphate buffer, pH 6.5. After centrifugation, the supernatant was collected and analyzed for the peroxide value using the TBA (thiobarbituric acid) test as described by Sinnhuber et. al, Food Res. 23: 620 (1958).\nIn these experiments adult mice (2 months old) were treated as described in Example 2. The grown mice were shaved before applying the creams to the skin. In this experiment the antioxidant was dissolved in Oil of Olay. Mice were sacrificed after 21 days.", "values": [{"smiles": "Cc1cc(C(C)(C)C)c(O)c(C(C)(C)C)c1", "note": "[BHT, butylated hydroxy toluene]", "reduction of the level of peroxides in the skin": "no reduction of the level of peroxides was observed"}, {"smiles": "COc1ccc(O)c(C(C)(C)C)c1", "note": "[BHA, butylated hydroxy anisole]", "reduction of the level of peroxides in the skin": "no reduction of the level of peroxides was observed"}, {"smiles": "Cc1c(C)c2c(c(C)c1O)CCC(C)(CCCC(C)CCCC(C)CCCC(C)C)O2", "note": "(stereo not drawn) [alpha tocopherol, alpha-tocopherol]", "reduction of the level of peroxides in the skin": "no reduction of the level of peroxides was observed"}]}]}
